The results in this text go back to US20110009345A1 (priority 2009, published 2011).

No end group written: not given here.

This data set deals with adjuvant-induced arthritis. To be noted: male Sprague-Dawley rats, by gavage during 10 days.

In the case of “YGSRS [peptide, tyrosine-glycine-serine-arginine-serine]”, the “effect on body weight” value is on record as “without inducing weight loss”.
